# Data from article PMC12106615, “Population pharmacokinetics of colistin sulfate in critically ill patients based on NONMEM” (Scientific Reports, 2025).
# Counter-ions that a name gives are not always drawn. Bridge positions count the residues as written; N and C are the ends. Square brackets hold non-standard residues; d marks the D form. Peptide text beside a SMILES is read from it. * marks the point of attachment. X1 = CC[C@H](C)CCCCC(=O)*; Dab = NCC[C@H](N)C(=O)O
# Assays:
# [1] = previous studies; ref [14],[25]–[29]; cited from earlier work
# Description: Advanced age, the presence of multiple coexisting diseases, severe infections, low fluid replacement volume, and exposure to combination therapy with multiple drugs are recognized as risk factors for the development of acute kidney injury associated with colistin sulfate treatment. If colistin sulfate is the only factor considered, a Css level of ...
# [2] = Nephrotoxicity / acute kidney injury by RIFLE criteria; format: in vivo, human; settings: 178 critically ill patients, empirical intravenous colistin sulfate; RIFLE criteria without urinary output criterion
# Description: (§1) The retrospective study subjects were patients admitted to Beijing Electric Power Hospital, Beijing, China, between May 2022 and May 2024. The study design conformed to the principles of the Declaration of Helsinki, and the study was approved by the Ethics Research Committee of Beijing Electric Power Hospital (approval no: n090327). Written informed consent was obtained from all patients or their legal representatives. In clinical practice, adult patients who had received intravenous colistin sulfate (Specification: 0.5 MU; Asia Pioneer Pharmaceutical Co., Ltd., Shanghai, China) with at least one measurement of colistin sulfate concentration were eligible for inclusion. The inclusion criteria were as follows: (1) age ≥ 18 years, (2) patients who had received colistin sulfate treatment, and (3) patients with at least one measurement of colistin sulfate concentration. The exclusion criteria were as follows: (1) patients who died within 24 h after receiving colistin sulfate treatment, (2) patients who received nebulized colistin sulfate and intrathecal colistin sulfate, and (3) patients who also received continuous renal replacement therapy during colistin sulfate treatment. […] The RIFLE criteria (risk, injury, failure, loss, and end-stage kidney disease), estimated with exclusion of the urinary output criterion, were used for detection and stratification of acute kidney injury.
# [3] = 14 patients with successful treatment; ref Yu et al.[14]; cited from earlier work
# Experimental: The steady-state plasma concentration (Css.avg) of these 129 patients was 0.93 ± 0.35 mg/L, which was inconsistent with the value (2.0–2.4 mg/L) jointly recommended by the multidisciplinary expert consensus[17] on the rational clinical use of colistin in China. This consensus considered that the in vitro antimicrobial activit ...
# [4] = Population pharmacokinetic (PPK) model of colistin sulfate, NONMEM, two-compartment with first-order elimination; format: in vivo, human
# Experimental: PPK analyses were performed using NONMEM version 7.5 (Icon Development Solutions, Ellicott City, MD, USA) and Pirana version 3.0. Ggplot2 version 3.5.1 package in R software (version 4.1.3, R-project.org) and Xpose version 4.3.2 packages were used to generate line plots and diagnostic plots, respectively.
# One- and two-compartment structural models with first-order elimination characteristics of colistin sulfate were constructed using NONMEM software. Between-subject variability (BSV) was assessed using an exponential function. Within-subject variability (WSV) was assessed by additive, proportional, or combined (additive plus proportional) models, while model with the smallest variability represented the best ones. The base model was chosen according to diagnostic plots and goodness-of-fit criteria, including improvement of the OFV and precision and plausibility of parameter estimation. The factors influencing fixed effects were screened based on our previous study. Covariates were included in the base models in a stepwise manner, and testing was performed by using the following statistical criteria: ΔOFV > 3.84, P < 0.05. The covariate was considered to have a significant influence at ΔOFV > 3.84 and retained in the model or eliminated otherwise. All covariates with significant influence on models were then incorporated into the base models to construct full regression models. The full regression models were then subjected to reverse elimination. The included covariates were tested using stricter statistical criteria (ΔOFV > 6.63, P < 0.01), and covariates showing a small influence on the models were eliminated, thereby yielding the final model.
# Goodness-of-fit plots, nonparametric bootstrap, and pc-VPC were used to evaluate the final model and parameter estimates. A nonparametric bootstrap procedure was utilized to assess the performance and stability of the final model. Random sampling and individual replacement were used to generate 1000 replicate datasets. The median and 95% CI values of the final model parameters obtained using bootstrap validation were then compared, and the predictive performance of the model was validated. The dataset was simulated 1000 times using the $SIMULATION block in NONMEM. The 90% CI values for the 5 th, 50 th, and 95 th percentiles of the simulated concentrations were calculated. The time curves were then plotted after the last dose and compared with the observed concentrations for prediction and variability correction using pc-VPC.
# [5] = Clinical outcome (14-day mortality) of patients receiving intravenous colistin sulfate; format: in vivo, human; settings: 178 critically ill patients, mostly combination therapy
# Description: as §1
# [6] = 178 critically ill patients, 364 concentrations, intravenous
# [7] = nonparametric bootstrap, 1000 replicate datasets
compound,measurement,setting,value
CC[C@H](C)CCCCC(=O)N[C@@H](CCN)C(=O)N[C@H](C(=O)N[C@@H](CCN)C(=O)N[C@H]1CCNC(=O)[C@H]([C@@H](C)O)NC(=O)[C@H](CCN)NC(=O)[C@H](CCN)NC(=O)[C@H](CC(C)C)NC(=O)[C@@H](CC(C)C)NC(=O)[C@H](CCN)NC1=O)[C@@H](C)O [colistin sulfate] (X1-[Dab]T[Dab][Dab][Dab][dL]L[Dab][Dab]T; lactam 4-C),Incidence rate of nephrotoxicity induced by colistin sulfate,[1],less than 21.25%
same,Acute kidney injury (nephrotoxicity) incidence,[2],11.8%
same,Css.avg of colistin sulfate,[3],1730 ± 980 ng/mL
same,"tvQ, typical value of inter-compartmental clearance, final model estimate",[4]; [6],1.63 L/h
same,"tvV2, typical value of volume of peripheral compartment distribution, final model estimate",[4]; [6],109 L
same,"tvV1, typical value of volume of central compartment distribution, final model estimate","[4]; 178 critically ill patients, 364 concentrations, intravenous, weight as covariate",49.7 L
same,"dVdWT, exponential parameter coefficient of WT to V1, final model estimate",[4]; final PPK model,1.2
same,clearance,"[4]; human, plasma, 178 critically ill patients, 364 concentrations, intravenous, CrCL as covariate, read-out: tvCL, typical value of central compartment clearance, final model estimate (converted)",44.3 mL/min
same,"dCLdCrCL, bootstrap median",[4]; [7],0.466
same,"dVdWT, bootstrap median",[4]; [7],1.28
same,"tvCL, bootstrap median",[4]; [7],2.67 L/h
same,"tvQ, bootstrap median",[4]; [7],1.67 L/h
same,"tvV1, bootstrap median",[4]; [7],50.04 L
same,"tvV2, bootstrap median",[4]; [7],103.65 L
same,14-day mortality rate,[5],27.53%
